Measurements reported in patent US8497237B2 (Signature Therapeutics, Inc., priority 2011, dated 2013).

Columns and labels:
[1] = Oral administration of Compound KC-7 co-dosed with trypsin inhibitor Compound 109 to rats (oxycodone in plasma); format: in vivo, rat; details: PO co-dosing, indicated by suppressed Cmax and/or delayed Tmax
[2] = Spacer leaving group cyclization rate (disappearance of compound in phosphate buffer); details: for half-life (compound disappearance, cyclization): 2.18 mM initial, 50 mM pH 7.4 phosphate buffer, 20° C.
[3] = Pharmacokinetics following PO administration to dogs (oxycodone in plasma)
trypsin = molecular target: T1, trypsin (Bos taurus, UniProt P00760); assay: In vitro trypsin-mediated prodrug cleavage; format: biochemical, bovine; details: bovine, trypsin from bovine pancreas; 0.761 mM prodrug, Tris pH 8, 37° C.; adjusted to 4815 BAEE U/mL trypsin
T1 construct: trypsin from bovine pancreas; purchased Sigma-Aldrich T8003; host or cells: bovine pancreas (tissue-derived)
T1 sequence (P00760 24-246): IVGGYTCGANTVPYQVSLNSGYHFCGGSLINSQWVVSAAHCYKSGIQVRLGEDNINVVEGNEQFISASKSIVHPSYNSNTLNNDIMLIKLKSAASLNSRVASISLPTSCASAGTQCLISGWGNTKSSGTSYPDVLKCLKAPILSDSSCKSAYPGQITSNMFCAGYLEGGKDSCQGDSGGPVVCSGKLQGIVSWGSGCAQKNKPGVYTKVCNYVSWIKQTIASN
Description: (§1) The reactions were conducted at 37° C. for 24 h.
(§2) Table 3 indicates the results of exposure of Compound KC-7 to trypsin. […] Table 3 also indicates the cyclization rates of the cyclizable spacer leaving group of Compound KC-23. The results are expressed as half-life of compound disappearance. Since Compound KC-23 is a diastereomer, two peaks (A and B) were analyzed; the peak area of peak B was greater than that of peak A.

[4] = molecular target: T2, trypsin from bovine pancreas (Bos taurus, UniProt P00760); assay: In vitro trypsin-mediated prodrug cleavage; format: biochemical
T2 construct: trypsin from bovine pancreas; purchased Sigma-Aldrich T8003; host or cells: bovine pancreas (tissue-derived)
T2 sequence (P00760 24-246): T1 sequence (P00760 24-246)
Description: as §1, §2

**Q.** With `N=C(N)c1ccc2cc(OC(=O)c3ccc(N=C(N)N)cc3)ccc2c1` [Compound 109, 6-carbamimidoylnaphthalen-2-yl 4-(diaminomethyleneamino) benzoate] as the compound, how does the “effect of trypsin inhibitor on oxycodone release from Compound KC-7” value [1] read?
**A.** attenuate Compound KC-7's ability to release oxycodone in rats in a dose-dependent manner

**Q.** Which “half-life (compound disappearance, cyclization)” value [2] does the source give for “[(S)-1-(oxycodone-6-enol-carbonyl-methyl-amino)-1-carbonyl-sarcosine]ethylamine [KC-23, peak A]” here?
**A.** 7.22 ± 0.03 h

**Q.** Which results are given for “N-1-[2-(oxycodone-6-enol-carbonyl-methyl-amino)-ethylamine]-arginine-malonic acid [Compound KC-3]”?
**A.** AUC ± sd ([3]; oxycodone in dog plasma, AUC 0 to 24 h, PO […] (KC-7 4.88, KC-3 4.15, oxycodone 2 mg/kg), OxyContin one 20 mg tablet): 65.6 ± 22 ng·h/mL; OC Cmax ± sd ([3]; oxycodone in dog plasma, PO […] (KC-7 4.88, KC-3 4.15, oxycodone 2 mg/kg), OxyContin one 20 mg tablet): 10.2 ± 3.3 ng/mL

**Q.** Which “half-life (compound disappearance, cyclization)” value [2] does the source give for “[(S)-1-(oxycodone-6-enol-carbonyl-methyl-amino)-1-carbonyl-sarcosine]ethylamine [KC-23, peak B]” here?
**A.** 5.80 ± 0.08 h

**Q.** With `COc1ccc2c3c1O[C@H]1C(OC(=O)N(C)[C@@H](CNC(=O)[C@H](CCCNC(=N)N)NC(=O)CNC(C)=O)C(=O)N(C)CC(=O)O)=CC[C@@]4(O)[C@@H](C2)N(C)CC[C@]314` [Compound KC-7, N-1-[(S)-2-(oxycodone-6-enol-carbonyl-methyl-amino)-2-carbonyl-sarcosine-ethylamine]-arginine-glycine-acetate] as the compound, how does the “cyclization of the spacer leaving group” value ([2]; shown by the cyclization rate of Compound KC-23) read?
**A.** can cyclize

**Q.** What about the half-life at 0.761 mM (trypsin) of the same compound?
**A.** 0.196 ± 0.00031 h

**Q.** What about the OC formation rate ([4]; 0.761 mM prodrug, Tris pH 8, 37° C.) of the same compound?
**A.** 0.339 ± 0.032 μmol/h/BAEE U

**Q.** What about the cleavage by trypsin ([4]; in vitro) of the same compound?
**A.** can be cleaved by trypsin

**Q.** What about the “plasma PK profile of oxycodone release compared to OxyContin tablets and oxycodone” value ([3]; dogs, PO) of the same compound?
**A.** resembles that of OxyContin® tablets more than that of oxycodone

**Q.** And the “release of oxycodone into dog plasma compared to Compound KC-3” value ([3]; dogs, PO)?
**A.** significantly enhanced release of oxycodone into dog plasma (higher Cmax and AUC) as well as a more rapid Tmax
